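The compound was tested at five concentrations on cells cultured in 96-well plates, with a 48-hour exposure period. Here, GI50 denotes the concentration required for 50% inhibition of growth. TGI: concentration producing complete growth inhibition.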
Assays:
Test in all cases: NCI-60 cell line screen, 48 h
SK-MEL-5 melanoma = test system: SK-MEL-5 melanoma
COLO 205 colon = test system: COLO 205 colon
SW-620 colon = test system: SW-620 colon
NCI/ADR-RES ovarian = test system: NCI/ADR-RES ovarian
SF-295 CNS = test system: SF-295 CNS
CAKI-1 renal = test system: CAKI-1 renal
786-0 renal = test system: 786-0 renal
T-47D breast = test system: T-47D breast
M14 melanoma = test system: M14 melanoma
CCRF-CEM leukemia = test system: CCRF-CEM leukemia

| Structure (SMILES) | GI50 (SK-MEL-5 melanoma) | TGI (SK-MEL-5 melanoma) | GI50 (COLO 205 colon) | TGI (COLO 205 colon) | GI50 (SW-620 colon) | TGI (SW-620 colon) | GI50 (NCI/ADR-RES ovarian) | TGI (NCI/ADR-RES ovarian) | GI50 (SF-295 CNS) | TGI (SF-295 CNS) | GI50 (CAKI-1 renal) | TGI (CAKI-1 renal) | GI50 (786-0 renal) | TGI (786-0 renal) | GI50 (T-47D breast) | TGI (T-47D breast) | GI50 (M14 melanoma) | TGI (M14 melanoma) | GI50 (CCRF-CEM leukemia) | TGI (CCRF-CEM leukemia) |
| --- | --- | --- | --- | --- | --- | --- | --- | --- | --- | --- | --- | --- | --- | --- | --- | --- | --- | --- | --- | --- |
| CC[C@H](Nc1ncnc2nc[nH]c12)c1nc2cccc(F)c2c(=O)n1-c1ccccc1 | 26.1 µM | > 100 µM | 72.8 µM | > 100 µM | 79.7 µM | > 100 µM | 86.8 µM | > 100 µM | 5.75 µM | > 100 µM | 9.94 µM | > 100 µM | 4.29 µM | > 100 µM | 3.76 µM | > 100 µM | 40.4 µM | > 100 µM | 12.2 µM | > 100 µM |
| O=[N+]([O-])c1cc(Cl)c2[nH]c3c(Cl)cc([N+](=O)[O-])cc3c2c1 | 0.129 µM | 0.651 µM | 0.469 µM | 1.99 µM | 0.576 µM | > 100 µM | 0.345 µM |  | 0.229 µM | 1.99 µM | 0.209 µM | 0.752 µM | 0.294 µM | 16.7 µM | 0.254 µM | > 100 µM | 0.458 µM | > 54.7 µM | 0.391 µM | 24.1 µM |
| Cc1[nH]nc(C(F)(F)F)c1N=NN(C)C |  | > 100 µM |  | 10.7 µM |  | > 100 µM |  | 23 µM |  | 25.7 µM |  | 3.56 µM |  | 3.09 µM |  | > 100 µM |  | 29.7 µM |  | 16 µM |
| Cn1c(-c2c(N)n(Nc3cccc(Cl)c3)c3nc(C#N)c(C#N)nc23)nc2ccccc21 | 7.41 µM | 16.6 µM | 6.35 µM | 18.2 µM | 7.94 µM | > 50 µM | 0.837 µM | 14.1 µM | 11 µM | 27.8 µM | 7.29 µM | 43.2 µM | 8.91 µM | 37.3 µM | 13.2 µM | > 50 µM | 6.51 µM | 20 µM | 23.5 µM | > 50 µM |
| COc1cc2ncn(-c3cc(OCc4ccccc4C(F)(F)F)c(C(=O)N(C)C)s3)c2cc1OC | 6.7 µM | > 13.1 µM | > 16.8 µM | > 25 µM | > 25 µM | > 25 µM | > 17 µM | > 25 µM | > 22.6 µM | > 25 µM | > 25 µM | > 25 µM | > 25 µM | > 25 µM | 7.02 µM | > 17 µM | > 25 µM | > 25 µM | > 22.1 µM | > 25 µM |
| COc1cc2nc(SCc3cc(OC)c(OC)c(OC)c3)n(Cc3ccccc3)c(=O)c2cc1OC | 0.454 µM | 2.63 µM | 1.74 µM | 6.96 µM | 2.5 µM | > 100 µM | 2.33 µM | 26.6 µM | 2.49 µM | 11.7 µM | 3.86 µM | > 100 µM | 5.34 µM | 27.3 µM | 4.54 µM | > 65.9 µM | 2.11 µM | > 26.8 µM | 3 µM | > 100 µM |
| CCNc1cc(-c2cccc(OC(F)(F)F)c2)nc2ccc(N3CCCC3)cc12 | 1.51 µM | 2.84 µM | 1.8 µM | 4.21 µM | 1.6 µM | 3.47 µM | 1.83 µM | 6.25 µM | 1.82 µM | 3.6 µM | 1.81 µM | 4.9 µM | 1.56 µM | 3.48 µM | 2.11 µM | 7.06 µM | 1.64 µM | 3.28 µM | 2.04 µM | 8.69 µM |
| CS(=O)(=O)CCNCc1cc(-c2cc3c(Nc4ccc(OCc5cccc(F)c5)c(Cl)c4)ncnc3s2)cs1 | 7.09 µM | > 25 µM | 9.61 µM | > 25 µM | 15 µM | > 25 µM | 11.3 µM | > 25 µM | 9.89 µM | > 25 µM | 4.79 µM | > 25 µM | 6.44 µM | > 18.7 µM | 3 µM | > 23.6 µM | 13.4 µM | > 25 µM | 11 µM | > 25 µM |
| Nc1nonc1-c1nc2cnccc2n1C1CC1 | 5.81 µM | > 19 µM | 4.52 µM | > 14.4 µM | 5.42 µM | > 25 µM | 10.6 µM | > 25 µM | 7.38 µM | > 25 µM | 1.45 µM | > 25 µM | 5.44 µM | > 25 µM | 5.7 µM | > 22.3 µM | 14.1 µM | > 25 µM | 7.99 µM | > 25 µM |
| Cn1c(C(=O)c2ccncc2)cc2ccccc21 | 37.5 µM | > 100 µM | > 100 µM | > 100 µM | 52.8 µM | > 100 µM | 46.8 µM | > 100 µM | > 100 µM | > 100 µM | 72.9 µM | > 100 µM | > 100 µM | > 100 µM | 41.6 µM | > 100 µM | > 100 µM | > 100 µM | > 100 µM | > 100 µM |

Reference: PubChem BioAssay (NCI)
